“Also recorded” adds a separate entry of the source. Where two headings read alike, the source gives them in different places. Ends that are not written are not given here.
What was measured:
SARS-CoV-2 S-RBD = SARS-CoV-2 S-RBD (Severe acute respiratory syndrome coronavirus 2, UniProt P0DTC2); experiment: biochemical; format: binding
SARS-CoV-2 pseudovirus = details: for inhibition rate on pseudotyped SARS-CoV-2 infection: 3.2 µM
[1] = target: T1, NRP1-BD (the b1 domain of NRP1) (Homo sapiens, UniProt O14786); experiment: Microscale thermophoresis (MST) binding to NRP1-BD; details: mean ± SD (n = 3)
T1 construct: NRP1-BD (the b1 domain of NRP1); purchased Abcam (Cambridge, MA, USA)
T1 sequence (O14786 275-424 limits assumed): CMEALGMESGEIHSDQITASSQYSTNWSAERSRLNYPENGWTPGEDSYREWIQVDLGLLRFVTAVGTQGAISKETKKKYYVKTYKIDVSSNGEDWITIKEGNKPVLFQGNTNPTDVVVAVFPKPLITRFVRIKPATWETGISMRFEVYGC

[2] = read-out: EC50 against pseudotyped SARS-CoV-2 infection

Row | Compound | Kd (SARS-CoV-2 S-RBD) [nM] | EC50 (SARS-CoV-2 pseudovirus; pseudovirus, 48 h) [nM] | further results
1 | Ac-QRNIYLDRHNHEAEDLKYQTALASFRPAKPAR [RN-3] | 95.3 ± 2.9 | 2870 ± 180 | –
2 | Ac-EKSTLKDRFNHEAQDLKYQDSLASYRGKRPPR [RN-2] | 65.3 ± 2.2 | 2370 ± 420 | –
3 | C[C@@]1(C(=O)O)CC[C@]2(C)CC[C@]3(C)C4=CC(=O)c5c(cc(O)c(O)c5C=O)[C@]4(C)CC[C@@]3(C)[C@@H]2C1 [T-96, demethylzeylasteral] | – | – | Kd (SARS-CoV-2 S-RBD; read-out: S-RBD Kd): 998.6 ± 8.4 nM; inhibition rate on pseudotyped SARS-CoV-2 infection (SARS-CoV-2 pseudovirus): about 40%; EC50 (SARS-CoV-2 pseudovirus; [2]): 5420 nM; NRP1-BD Kd [1]: no binding; also recorded: without binding
4 | NC(N)=NCCC[C@H](NC(=O)c1sccc1NS(=O)(=O)c1cccc2nsnc12)C(=O)O [EG00229] | – | – | S-RBD Kd (SARS-CoV-2 S-RBD): no binding; also recorded: without binding; inhibition rate on pseudotyped SARS-CoV-2 infection (SARS-CoV-2 pseudovirus): 15%; EC50 (SARS-CoV-2 pseudovirus; [2]): > 20000 nM; Kd ([1]; value in μM): 4.9 ± 0.7 µM
5 | Ac-ETQVLLDKLNHEAEDLKYQSALASHRVRRPPR [RN-5] | 207 ± 4.5 | 3720 ± 890 | –
6 | Ac-QNKVYIDKYNHEAQDLFYQSALKAHRGNRRAR [RN-1] | 19.9 ± 1.4 | 1980 ± 370 | –
7 | Ac-EARTFLDKYNHEAEDLYYQSSLASWGSPRRAR [RN-4] | 7.4 ± 0.5 | 390 ± 90 | –

Reference: publication PMC10193894 (Journal of Enzyme Inhibition and Medicinal Chemistry, 2023)
